The values below come from US20230270721A1, “INHIBITION OF BAX-MEDIATED CELL DEATH BY ELTROMBOPAG” (Albert Einstein College of Medicine, priority 2020, published 2023).

The target of series [1] is T1, BAX (Homo sapiens, UniProt Q07812).
T1 construct: Human full-length (1-192) wild-type BAX (Q07812); made in house; host or cells: E. coli BL21 (DE3) CodonPlus (DE3)-RIPL
The series is described as follows: Liposomal permeabilization (ANTS/DPX release) assay. The series is classed as biochemical. As to conditions: for IC50: 30 minutes. The protocol: (§1) Lipids (Avanti Polar Lipids) at the following ratio, phosphatidylcholine 48%, phosphatidylinositol 10%, dioleoyl phosphatidylserine 10%, phosphatidylethanolamine, 28%, and tetraoleoyl cardiolipin 4%, were mixed in a total of 1 mg, dried and resuspended in 10 mM HEPES, pH 7, 200 mM KCI, and 5 mM MgCl2 with 12.5 mM 8-aminonaphthalene-1,3,6-trisulfonic acid (ANTS) dye and 45 mM p-xylene-bis-pyridinium bromide (DPX) quencher (Molecular Probes) using a water bath sonicator. Liposomes were formed by extrusion of the suspension using Avanti Mini-Extruder (Cat # 610000) with polycarbonate membranes of 0.1 µm pore size (Avanti Polar Lipids). ANTS/DPX encapsulated liposomes were purified from non-encapsulated ANTS/DPX by gel filtration of a 10 mL CL2B-Sepharose (GE Healthcare Life Sciences) gravity-flow column. BAX (50-250 nM) was combined with tBID, BIM, and EO at the indicated concentrations to a volume of 90 µL. Reactions were initiated by the addition of 10 pL of the encapsulated ANTS/DPX liposome stock. ANTS/DPX release was quantified based on the increase in fluorescence intensity that occurs when the ANTS fluorophore is separated from the DPX quencher upon release from the liposomes into solution. Fluorescence (λex = 355 nm and λem = 520 nm) was measured at 1 minute intervals at room temperature (22-25° C.) indicated using a Tecan Infinite M1000 plate reader. In the case of heat activation, reactions were set up as described in the absence of tBID or BIM, and experiments were recorded at 42° C. The percentage release of ANTS/DPX at any given time point was calculated as percentage release=((F-F0)/(F100-F0))(100), where F0 and F100 are baseline and maximal fluorescence, respectively. Triton X-100 (1%) was used to determine the maximum amount of liposomal release per assay and was set to 100%.
Next, EO’s capacity to modulate BAX activity was evaluated using liposomal release assays. […] Instead, EO was able to inhibit both tBID- and BIM BH3-mediated BAX activation (FIGS. 1E, 1F, and 1G). Inhibition of tBID-mediated BAX activation by EO was inversely proportional to the concentration of the tBID activator, consistent with competitive inhibition of BH3-activator binding.

Series [2] has as its target T2, BAX R134E R145E (Homo sapiens, UniProt Q07812, R134E/R145E).
T2 construct: Human full-length (1-192) wild-type BAX (Q07812); made in house; host or cells: E. coli BL21 (DE3) CodonPlus (DE3)-RIPL
The experiment in a line: Liposomal permeabilization assay, double mutant. The series is classed as biochemical. As to conditions: 250 nM BAX and 5 nM tBID; read-out: IC50, inhibition of liposomal release. The protocol: as §1, with “ANTS/DPX encapsulated liposomes were purified from non-encapsulated ANTS/DPX by gel filtration of a 10 mL CL2B-Sepharose (GE Healthcare Life Sciences) gravity-flow column. BAX (50-250 nM) was combined with tBID, BIM, and EO at the indicated concentrations to a volume of 90 µL. Reactions were initiated by the addition of 10 pL of the encapsulated ANTS/DPX liposome stock.” left out, “Triton X-100 (1%) was used to determine the maximum amount of liposomal release per assay and was set to 100%.” left out

Series [3] has as its system BAX KO (BAX-/-) MEFs. The experiment in a line: Cytochrome c release assay (ELISA), BAX KO MEFs. As to conditions: BIM-BH3 peptide. The series is classed as cell-based, mouse. On the procedure:
BAX^-/^- or BAK^-/^- mouse embryonic fibroblasts were maintained in DMEM (Life Technologies) supplemented with 10% FBS, 100 U/mL penicillin/streptomycin, 2 mM I-glutamine, and 0.1 mM MEM nonessential amino acids. MEFs (5×10^4 cells/well) were seeded in a 96 well clear u-bottom plate for 18-24 hr. Media was removed and replaced with media lacking FBS, and cells were treated with varying doses of EO for 2 hours at 37° C. […] Cytochrome c release was determined by decanting 50 µL of the supernatant and analyzing with the rat/mouse cytochrome c quantikine ELISA kit (R&D Systems, MCTO) according to the recommended protocol. […]
It is important to note that THPO-receptor agonist activity of EO is highly specific to the human and chimpanzee THPO-receptors, making mouse cell lines ideal for studying EO modulation of BAX-dependent activity independent of THPO-mediated effects (Erickson-Miller, C. L. et al. Stem Cells 27, 424-430 (2009)). First, mitochondrial cytochrome c release, a hallmark of BAX activation and BAX-dependent apoptosis, was evaluated. […] Next, mitochondrial translocation of cytosolic BAX upon treatment with either BIM BH3 or staurosporine (STS) in BAK KO MEFs was evaluated.
A general note: ELISA stands for enzyme-linked immunosorbent assay.

The conditions of series [4]: cited from earlier work.

Each structure is given as a SMILES string. Read-outs that look alike come from different tables or passages of the source.

T1 sequence (Q07812 whole entry): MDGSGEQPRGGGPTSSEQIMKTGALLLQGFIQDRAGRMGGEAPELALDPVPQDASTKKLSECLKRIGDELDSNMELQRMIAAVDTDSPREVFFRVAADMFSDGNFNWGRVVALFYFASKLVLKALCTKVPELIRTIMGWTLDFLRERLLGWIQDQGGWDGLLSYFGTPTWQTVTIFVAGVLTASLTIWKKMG
T2 sequence (Q07812 whole entry R134E/R145E): as the sequence (Q07812 whole entry) above, with R134E, R145E counted along it

For the compound `CC1=NN(c2ccc(C)c(C)c2)C(=O)/C1=N\Nc1cccc(-c2cccc(C(=O)O)c2)c1O` [EO, eltrombopag], the IC50 – broadly, the concentration at which inhibition is half-maximal – in series [1] (50 nM BAX and 5 nM tBID, read-out: tBID IC50, inhibition of BAX activity in liposomal release) was 2.4 µM; in series [1] (50 nM BAX, read-out: BIM IC50, inhibition of BAX activity in liposomal release), 4.7 µM; in series [1] (250 nM BAX at 42° C., read-out: heat IC50, inhibition of BAX activity in liposomal release) it was 4.5 µM; in series [2] it was above 10 µM. In series [1] (concentrations up to 10 µM, no activator), the “ability to activate BAX in liposomal release assay” value is recorded as “no ability to activate BAX”. In addition, in series [3], the “BIM-BH3 induced release of cytochrome c” value is “no such effect”. Also, the “time of peak concentration” value in series [4] (after oral administration) is 2 to 6 h. Also, the oral bioavailability result in series [4] (in vivo, po) is given as “excellent oral bioavailability”. Further, the half-life (usually the time needed for the level to fall by half in the phase considered) in series [4] (oral administration) was 21 to 32 h.
